Source: US20260306490A1, “PIM1 INHIBITOR FOR TREATING MYELOPROLIFERATIVE NEOPLASMS” (Sumitomo Pharma America, Inc., priority 2022, published 2026)

Test system: MF patients
Experiment: Phase 1/2 clinical study in MF patients treated with HCl salt of Compound (1) (TP-3654-102)
Assay type: in vivo, human
Design: reduction in IL6 / reduction in IL12p40 / reduction in MMP9 / reduction in EN-RAGE / median TSS reduction from baseline: concentration or dose not given beside the values
Description: Patients with MF (primary MF, post-PV MF, post-ET MF) and DIPSS intermediate-1, intermediate-2, or high risk were enrolled in a Phase 1/2 clinical study.
Dose escalation to 960 mg BID and 1440 mg BID is intended.
Patients had to meet all of the following inclusion criteria to enroll in the study: • 1. Adult (≥18 years of age) • 2. Confirmed pathological diagnosis of primary MF (PMF) or post-PV-MF/postET-MF as per WHO diagnostic criteria and intermediate or high-risk primary or secondary MF based on the Dynamic International Prognostic Scoring System (DIPSS). • 3. Previously treated with a JAK inhibitor and are intolerant, resistant, refractory or lost response to the JAK inhibitor, or are ineligible to be treated with ruxolitinib or fedratinib at the discretion of the investigator. • 4. Grade≥2 bone marrow fibrosis, as confirmed by bone marrow biopsy within 12 weeks prior to Screening. • 5. Fulfill the following laboratory parameters: • a. Platelet count≥25×10^9/L (without the assistance of growth factors or platelet transfusions) • b. Absolute neutrophil count (ANC)≥1×10^9/L without the assistance of granulocyte growth factors. • 6. Peripheral blood blast count<10%. • 7. Eastern Cooperative Oncology Group (ECOG) performance status≤2. • 8. Life expectancy≥3 months. • 9. […] Adequate hepatic function (ALT/AST≤3×ULN, total bilirubin≤1.5×ULN; or ALT/AST≤5×ULN, direct bilirubin≤2×ULN if due to MF); and coagulation ([PT and PTT]≤1.5×ULN). • 11. Agree to provide bone marrow biopsies during the study: at baseline or within 12 weeks prior to enrollment, and every 6 months during treatment. • 12. Capable of providing signed informed consent as described in which includes compliance with the requirements and restrictions listed in the informed consent form (ICF) and in this protocol • 13. […] Show at least 2 symptoms measurable (score≥1) using the Myelofibrosis Symptom Assessment Form (MFSAF), v4.0. • 16. Able to take orally administered medication
Patients meeting any one of the exclusion criteria were prohibited from participating in the study: • 1. Received previous systemic antineoplastic therapy (including unconjugated therapeutic antibodies, toxin immunoconjugates, ESA, and alpha-interferon) or any experimental therapy within 14 days or 5 half-lives, whichever is longer, before the first dose of study treatment. • 2. Major surgery within 2 weeks before the first dose of either study drug. • 3. Splenic irradiation within 6 months prior to Screening or prior splenectomy. • 4. AML, MDS, or peripheral blasts≥10%. • 5. Prior autologous or allogeneic stem cell transplant at any time. • 6. Eligible for allogeneic bone marrow or stem cell transplantation within 3 months following enrollment (not a candidate or not willing to undergo transplantation or a suitable donor not available are considered as transplant ineligible). • 7. Currently receiving treatment with a prohibited medication that cannot be discontinued at least one week prior to the start of treatment. • 8. Experiencing electrolyte abnormalities of NCI CTCAE Grade≥2 (e.g., serum potassium, magnesium and calcium) unless they can be corrected during screening and are deemed not clinically significant by the Investigator. • 9. History of congestive heart failure, myocardial infarction within the past 6 months prior to Cycle 1/Day 1; left ventricular ejection fraction<45% by echocardiogram or MUGA, unstable arrhythmia, or evidence of ischemia on electrocardiogram (ECG) within 14 days prior to Cycle 1/Day 1. • 10. Corrected QT interval (using Fridericia's correction formula) of >450 msec in men and >470 msec in women. • 11. Central nervous system (CNS) cancer or metastases, meningeal carcinomatosis, malignant seizures, or a disease that either causes or threatens neurologic compromise (e.g., unstable vertebral metastases). • 12. Other invasive malignancies within the last 3 years, except non-melanoma skin cancer, and localized cured prostate and cervical cancer • 13. […]

[1] = R/R MF, ≥25 × 10^9/L PLT, monotherapy
[2] = TP-3654-102, R/R MF, monotherapy, N = 23
[3] = first interim analysis, FIG. 5G
[4] = first interim analysis, monotherapy, 480 mg QD to 720 mg BID
[5] = first interim analysis, over treatment duration
[6] = first interim analysis, treatment duration ≥12 weeks
[7] = one patient with bone marrow fibrosis reduction
[8] = second interim analysis, MFSAF v4.0
[9] = second interim analysis, n = 13

## CC(C)(O)[C@H]1CC[C@H](Nc2ccc3ncc(-c4cccc(C(F)(F)F)c4)n3n2)CC1 [Compound (1)]
R/R MF, Ph 1
  Hem AE (>10%), thrombocytopenia: No ≥G3
[1]
  SVR35 at Week 24: 23%
  TSS50 at Week 24: 54%
[2]
  TEAE Anemia, All Gr: 13%
  TEAE Anemia, ≥3 Gr: 4.3%
  TEAE Neutropenia, All Gr: 0%
  TEAE Neutropenia, ≥3 Gr: 0%
  TEAE Thrombocytopenia, All Gr: 22%
  TEAE Thrombocytopenia, ≥3 Gr: 13%
First interim analysis
  patients with myelosuppressive adverse events (anemia, neutropenia, thrombocytopenia): 1 patient
  time at which cytokine modulation was observed (as early as): ≤ 24 h
[3]
  patients with reduced spleen size and reduced symptoms: 4 patients
  patients with spleen volume increase and reduced symptoms: 1 patient
  patients with spleen volume reduction and increased symptoms: 1 patient
First interim analysis, cytokine changes available for 7 patients
  reductions in cytokines vs total symptoms reduction: More reductions in cytokines were observed in patients who had more total symptoms reduction
[4]
  hemoglobin: increased in some patients
  neutrophil counts: stable
  platelet counts: stable or increased
[5]
  spleen volume, median best change: −13%
  total symptom score, median best change: −70%
[6]
  patients with spleen volume reduction: Eight out of 10
  patients with total symptom reduction: Nine out of 10
For most patients, monotherapy
  change for platelet count, hemoglobin, and neutrophil reduction: less than 1 grade
[7]
  reduction in EN-RAGE: 68%
  reduction in IL12p40: 83%
  reduction in MMP9: 56%
One patient with bone marrow fibrosis reduction, printed 1L6
  reduction in IL6: 68%
One patient, on active treatment >18 months
  bone marrow fibrosis reduction: from grade 3 to 2
Relative to toxicities reported for other MF treatments
  overlapping hematological toxicities (thrombocytopenia and/or anemia): minimal or no indication of overlapping hematological toxicities
Second interim analysis
  patients achieving ≥35% SVR (number): 3 of 13
Second interim analysis, 13 evaluable patients
  median spleen volume change: −11%
Second interim analysis, 23 patients, 5 dose levels
  dose limiting toxicities: no dose limiting toxicities
[8]
  median TSS reduction from baseline: 70%
  patients with TSS reduction: 12 out of 13
  patients with ≥50% TSS reduction (number): Seven of 13
[9]
  patients achieving ≥35% SVR (percent): 23%
  patients with ≥50% TSS reduction (percent): 54%
Second interim analysis, of seven patients with ≥50% TSS reduction
  patients with ≥50% TSS reduction and durable response for ≥12 weeks: 5 patients
Second interim analysis, ≥12 weeks of treatment, 13 evaluable
  patients with spleen volume reduction (SVR): 10 patients
Second interim analysis, printed mg BTD
  doses declared safe: up to 720 mg
